Where two headings read alike, the source gives them in different places.
Legend:
Test in all cases: MIC, NCCLS broth microdilution
Format in all cases: cell-based
E. faecalis A7789 Line-R = settings: Enterococcus faecalis, A7789LINER
Description: (§1) The efficacy of ramoplanin was tested against recently isolated VRE that are resistant to linezolid and quinupristin/dalfopristin. The culture media containing ramoplanin was supplemented with 0.02% bovine serum albumin (BSA) to prevent ramoplanin binding to the plastic. MIC values were determined in both cation-adjusted Mueller-Hinton broth (CAMHB) and trypticase soy broth (TSB) by the National Committee for Clinical Laboratory Standards (NCCLS) broth microdilution method. Macromolecular biosynthesis experiments were done by following the incorporation of carbon-14-labeled N-acetylglucosamine, acetic acid, amino acids, uridine, and thymidine into peptidoglycan, fatty acid, protein, RNA and DNA, respectively.

E. faecalis ATCC29212 = settings: Enterococcus faecalis, ATCC29212, E. faecalis ATCC29212, read-out: MIC
Description: as §1

E. faecalis ATCC51299 = settings: Enterococcus faecalis, ATCC51299, E. faecalis ATCC51299, read-out: MIC
Description: as §1

E. faecium A-5960 Line-R = settings: Enterococcus faecium, A5960LINER
Description: as §1

E. faecium A2735 Syn-R = settings: Enterococcus faecium, A2735SYNR, read-out: MIC
Description: as §1

E. faecium A4192 Syn-R = settings: Enterococcus faecium, A4192SYNR, read-out: MIC
Description: as §1

E. faecium A5959 Line-R = settings: Enterococcus faecium, A5959LINER
Description: as §1

E. faecium A6343 Line-R = settings: Enterococcus faecium, A6343LINER, read-out: MIC
Description: as §1

E. faecium A6345 Line-R = settings: for MIC: Enterococcus faecium, A6345LINER, E. faecium A6345 Line-R, read-out: MIC
Description: as §1

E. faecium A6349 Line-R = settings: Enterococcus faecium, A6349LINER, read-out: MIC
Description: as §1

E. faecium A6350 Line-R = settings: Enterococcus faecium, A6350LINER, read-out: MIC
Description: as §1

E. faecium ATCC700221 = settings: Enterococcus faecium, ATCC700221, E. faecium ATCC700221, read-out: MIC
Description: as §1

E. faecium UA210 = settings: Enterococcus faecium, UA210, E. faecium UA210, read-out: MIC
Description: as §1

E. faecium UA392 = settings: Enterococcus faecium, UA392, E. faecium UA392, read-out: MIC
Description: as §1

E. gallinarum UA604 = settings: Enterococcus gallinarum, GALLINARUM, read-out: MIC
Description: as §1

S. aureus ATCC12600 MRSA = settings: Staphylococcus aureus, read-out: MIC
Description: as §1

S. aureus ATCC27659 MSSA = settings: Staphylococcus aureus, read-out: MIC
Description: as §1

S. aureus ATCC27660 MSSA = settings: Staphylococcus aureus, read-out: MIC
Description: as §1

S. aureus ATCC35556 MRSA = settings: Staphylococcus aureus, read-out: MIC
Description: as §1

S. aureus ATCC43300 MRSA = settings: Staphylococcus aureus, ATCC 43300 / MRSA / VISA, S. aureus ATCC43300 MRSA/VISA, read-out: MIC
Description: as §1

S. epidermidis ATCC12228 = settings: Staphylococcus epidermidis, ATCC12228, S. epidermidis ATCC12228, read-out: MIC
Description: as §1

S. epidermidis ATCC14990 = settings: Staphylococcus epidermidis, ATCC14990, S. epidermidis ATCC14990, read-out: MIC
Description: as §1

S. epidermidis ATCC35983 = settings: Staphylococcus epidermidis, ATCC35983, S. epidermidis ATCC35983, read-out: MIC
Description: as §1

CC(=O)NC[C@H]1CN(c2ccc(N3CCOCC3)c(F)c2)C(=O)O1 [Linezolid]
2 µg/mL: MIC (E. faecalis ATCC29212; Table 6, 2nd) | MIC (E. faecalis ATCC51299; Table 6, 1st) | MIC (E. faecalis ATCC51299; Table 6, 2nd) | MIC (E. faecium A2735 Syn-R; Table 6, 2nd) | MIC (E. faecium A4192 Syn-R; Table 6, 2nd) | MIC (E. faecium A6350 Line-R; Table 6, 2nd) | MIC (E. faecium ATCC700221; Table 6, 2nd) | MIC (E. faecium UA210; Table 6, 2nd) | MIC (E. faecium UA392; Table 6, 2nd) | MIC (E. gallinarum UA604; Table 6, 2nd) | MIC (S. aureus ATCC12600 MRSA; Table 6, 2nd) | MIC (S. aureus ATCC27659 MSSA; Table 6, 2nd) | MIC (S. aureus ATCC27660 MSSA; Table 6, 2nd) | MIC (S. aureus ATCC35556 MRSA; Table 6, 2nd) | MIC (S. aureus ATCC43300 MRSA; Table 6, 2nd) | MIC (S. epidermidis ATCC12228; Table 6, 1st) | MIC (S. epidermidis ATCC12228; Table 6, 2nd) | MIC (S. epidermidis ATCC14990; Table 6, 2nd) | MIC (S. epidermidis ATCC35983; Table 6, 1st) | MIC (S. epidermidis ATCC35983; Table 6, 2nd)
> 16 µg/mL: MIC (E. faecalis A7789 Line-R; Table 6, 1st) | MIC (E. faecium A-5960 Line-R; Table 6, 1st) | MIC (E. faecium A5959 Line-R; Table 6, 1st) | MIC (E. faecium A6345 Line-R; Table 6, 1st)
32 µg/mL: MIC (E. faecalis A7789 Line-R; Table 6, 2nd) | MIC (E. faecium A-5960 Line-R; Table 6, 2nd) | MIC (E. faecium A6345 Line-R; Table 6, 2nd)
4 µg/mL: MIC (E. faecalis ATCC29212; Table 6, 1st) | MIC (E. faecium A2735 Syn-R; Table 6, 1st) | MIC (E. faecium A4192 Syn-R; Table 6, 1st) | MIC (E. faecium A6350 Line-R; Table 6, 1st) | MIC (E. faecium ATCC700221; Table 6, 1st) | MIC (E. faecium UA210; Table 6, 1st) | MIC (E. faecium UA392; Table 6, 1st) | MIC (E. gallinarum UA604; Table 6, 1st) | MIC (S. aureus ATCC12600 MRSA; Table 6, 1st) | MIC (S. aureus ATCC27659 MSSA; Table 6, 1st) | MIC (S. aureus ATCC27660 MSSA; Table 6, 1st) | MIC (S. aureus ATCC35556 MRSA; Table 6, 1st) | MIC (S. aureus ATCC43300 MRSA; Table 6, 1st) | MIC (S. epidermidis ATCC14990; Table 6, 1st)
8 µg/mL: MIC (E. faecium A6343 Line-R; Table 6, 1st) | MIC (E. faecium A6343 Line-R; Table 6, 2nd)
16 µg/mL: MIC (E. faecium A5959 Line-R; Table 6, 2nd) | reference MIC for strains used for killing curve (E. faecium A6345 Line-R; E. faecium A6345 Line-R. as printed, second row of Table 3) | MIC (E. faecium A6349 Line-R; Table 6, 1st) | MIC (E. faecium A6349 Line-R; Table 6, 2nd)
16 to 32 µg/mL: reference MIC for strains used for killing curve (E. faecium A6345 Line-R; E. faecium A6345 Line-R., first row of Table 3)

From patent US20040127403A1, “Methods for treating and preventing Gram-positive bacteremias” (priority 2002, published 2004)
